Patent US7572913B2, “4-substituted piperidine derivatives” (Bioaxone Therapeutique Inc., priority 2004, dated 2009)

Key:
ROCKII = target: T1, ROCKII (Rattus norvegicus, UniProt Q62868); assay: ROCKII inhibition at a single concentration of 10 μM (selectivity histogram, Table 3); type: biochemical
T1 construct: purchased Upstate Ltd. (United Kingdom)
Experimental: Compounds of this invention can be evaluated for kinase inhibition activity as solutions in 100% DMSO at a concentration of 10 μM added to GSK3β(h) and to ROCK-II(r) with ATP present at a concentration of 100 μM. Samples of compounds of this invention can be tested at 10 μM.
The data can be presented as relative ROCK kinase inhibition at a reference compound concentration of 3.5 uM and at 35 μM, wherein 0 signifies complete inhibition under the ATP concentration tested (100 μM). ROCK kinase activity is the opposite of ROCK kinase inhibition, and is compared with the GSKB kinase activity.
Experiments were done in duplicate. ATP was present at 100 μM in the assay.
(§1) The values were expressed in a percentage of inhibition of each kinase. Experiments were done in duplicate. ATP was present at 100 μM in the assay.
(§2) Percent net neurite outgrowth at 35 micromolar concentrations are presented in Table 3 together with percent Rock inhibition at 10 micromolar for three compounds designated BA-1043, BA-1049, and BA-1050. […] It should be noted that percent Rock activity is equal to 100% minus percent Rock inhibition.

MSK1 = MSK1 (Homo sapiens, UniProt O75582); conditions: FIG. 5; compound at 10 μM; ATP 100 μM; duplicate
MSK1, sequence (O75582 whole entry, species assumed): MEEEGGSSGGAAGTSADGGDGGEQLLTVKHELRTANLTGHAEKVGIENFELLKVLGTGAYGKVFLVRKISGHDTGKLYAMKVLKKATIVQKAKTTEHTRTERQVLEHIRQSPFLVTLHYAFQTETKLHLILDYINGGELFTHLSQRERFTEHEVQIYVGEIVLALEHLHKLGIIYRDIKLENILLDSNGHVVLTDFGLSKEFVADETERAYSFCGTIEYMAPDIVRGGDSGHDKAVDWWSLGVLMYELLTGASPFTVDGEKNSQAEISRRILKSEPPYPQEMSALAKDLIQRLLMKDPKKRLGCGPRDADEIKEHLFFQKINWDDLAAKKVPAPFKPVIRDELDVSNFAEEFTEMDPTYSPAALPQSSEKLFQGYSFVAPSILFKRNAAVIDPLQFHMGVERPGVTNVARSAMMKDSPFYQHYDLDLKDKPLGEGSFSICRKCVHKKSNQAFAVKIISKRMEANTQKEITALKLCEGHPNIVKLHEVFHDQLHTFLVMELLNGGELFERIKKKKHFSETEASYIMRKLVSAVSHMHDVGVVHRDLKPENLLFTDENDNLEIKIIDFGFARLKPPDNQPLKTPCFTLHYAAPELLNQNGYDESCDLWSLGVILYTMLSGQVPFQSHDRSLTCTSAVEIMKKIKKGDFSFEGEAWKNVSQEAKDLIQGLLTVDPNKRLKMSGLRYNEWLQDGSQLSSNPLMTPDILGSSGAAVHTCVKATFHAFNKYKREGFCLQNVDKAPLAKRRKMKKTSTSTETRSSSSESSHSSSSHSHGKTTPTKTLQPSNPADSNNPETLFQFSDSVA
Experimental: as §1

PRK2 = PRK2 (Homo sapiens, UniProt Q16513); conditions: FIG. 5; compound at 10 μM; ATP 100 μM; duplicate
PRK2, sequence (Q16513 whole entry): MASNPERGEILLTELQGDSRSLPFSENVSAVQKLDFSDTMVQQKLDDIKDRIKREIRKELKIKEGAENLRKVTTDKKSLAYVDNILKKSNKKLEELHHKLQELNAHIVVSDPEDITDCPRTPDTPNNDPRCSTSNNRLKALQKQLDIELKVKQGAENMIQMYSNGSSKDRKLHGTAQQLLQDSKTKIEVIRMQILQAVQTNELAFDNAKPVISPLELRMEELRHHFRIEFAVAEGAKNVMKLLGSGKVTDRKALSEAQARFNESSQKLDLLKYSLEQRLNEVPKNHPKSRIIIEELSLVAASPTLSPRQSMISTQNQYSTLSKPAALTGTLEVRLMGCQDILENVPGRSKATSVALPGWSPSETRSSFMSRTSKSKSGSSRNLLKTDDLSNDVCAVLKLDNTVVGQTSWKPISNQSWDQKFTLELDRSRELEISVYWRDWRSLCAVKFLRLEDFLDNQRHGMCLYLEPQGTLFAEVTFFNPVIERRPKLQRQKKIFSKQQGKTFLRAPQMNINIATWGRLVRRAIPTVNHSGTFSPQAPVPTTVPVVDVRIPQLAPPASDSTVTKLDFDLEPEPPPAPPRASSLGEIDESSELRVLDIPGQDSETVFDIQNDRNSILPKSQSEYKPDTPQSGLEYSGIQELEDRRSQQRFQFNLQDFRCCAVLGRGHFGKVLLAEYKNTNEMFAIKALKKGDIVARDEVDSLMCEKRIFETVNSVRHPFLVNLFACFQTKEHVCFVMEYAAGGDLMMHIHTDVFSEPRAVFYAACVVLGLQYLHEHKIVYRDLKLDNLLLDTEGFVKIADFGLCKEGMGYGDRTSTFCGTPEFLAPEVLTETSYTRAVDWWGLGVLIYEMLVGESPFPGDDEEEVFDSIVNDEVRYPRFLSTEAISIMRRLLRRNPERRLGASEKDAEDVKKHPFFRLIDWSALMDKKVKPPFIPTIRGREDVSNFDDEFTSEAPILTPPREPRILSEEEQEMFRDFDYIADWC
Experimental: Samples can also be tested at 10 μM against CDK5/p35(h), JNK1α1(h), MAPK1(h), PKA(b), PKCα(h), PRK2(h), ROCK-II(r), […], PKBα(h), and Fyn(h) with ATP at 100 μM.
as §1

NG108 cells = assay: Bioassay of neurite outgrowth in NG108 cells on plastic; type: cell-based; conditions: compound at 35 micromolar
Excerpt: as §2

[1] = equilibrium dialysis 24 h, 37° C.

T1 sequence (Q62868 whole entry): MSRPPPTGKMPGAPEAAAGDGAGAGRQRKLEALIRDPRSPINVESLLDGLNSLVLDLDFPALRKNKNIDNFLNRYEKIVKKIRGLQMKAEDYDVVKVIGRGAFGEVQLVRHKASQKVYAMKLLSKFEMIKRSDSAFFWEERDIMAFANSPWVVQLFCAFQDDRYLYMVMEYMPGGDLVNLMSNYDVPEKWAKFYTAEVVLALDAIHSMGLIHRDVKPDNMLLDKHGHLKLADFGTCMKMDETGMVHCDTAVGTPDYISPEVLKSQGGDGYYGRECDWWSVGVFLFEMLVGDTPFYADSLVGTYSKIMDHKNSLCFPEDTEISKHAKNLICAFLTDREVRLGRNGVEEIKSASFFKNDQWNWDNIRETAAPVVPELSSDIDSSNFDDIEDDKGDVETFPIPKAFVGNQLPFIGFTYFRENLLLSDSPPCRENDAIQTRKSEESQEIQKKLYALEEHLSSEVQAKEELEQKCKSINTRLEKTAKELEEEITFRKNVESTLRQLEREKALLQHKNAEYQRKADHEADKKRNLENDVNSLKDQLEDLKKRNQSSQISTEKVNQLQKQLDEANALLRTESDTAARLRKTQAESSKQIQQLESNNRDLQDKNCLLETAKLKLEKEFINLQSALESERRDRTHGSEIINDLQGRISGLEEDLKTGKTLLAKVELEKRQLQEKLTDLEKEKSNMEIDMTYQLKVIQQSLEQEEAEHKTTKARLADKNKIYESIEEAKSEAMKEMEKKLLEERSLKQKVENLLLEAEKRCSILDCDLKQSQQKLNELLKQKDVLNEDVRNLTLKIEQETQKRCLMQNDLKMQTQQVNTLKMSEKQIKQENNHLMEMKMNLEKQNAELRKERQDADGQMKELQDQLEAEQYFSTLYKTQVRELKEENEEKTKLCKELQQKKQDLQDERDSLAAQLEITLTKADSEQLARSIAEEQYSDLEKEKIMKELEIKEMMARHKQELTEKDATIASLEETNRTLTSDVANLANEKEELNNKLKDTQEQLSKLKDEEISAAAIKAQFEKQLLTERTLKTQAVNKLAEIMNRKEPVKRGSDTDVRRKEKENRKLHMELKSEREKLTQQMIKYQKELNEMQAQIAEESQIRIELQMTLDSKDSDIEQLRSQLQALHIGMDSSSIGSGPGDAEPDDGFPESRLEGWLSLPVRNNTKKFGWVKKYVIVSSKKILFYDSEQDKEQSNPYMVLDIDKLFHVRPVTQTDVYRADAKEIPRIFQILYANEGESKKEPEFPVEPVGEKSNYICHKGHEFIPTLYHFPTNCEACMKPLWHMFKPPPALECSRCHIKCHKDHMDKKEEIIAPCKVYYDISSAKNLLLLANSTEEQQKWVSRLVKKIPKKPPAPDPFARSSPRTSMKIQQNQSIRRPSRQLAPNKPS
Excerpt for human plasma proteins: Plasma or serum protein binding assays using the equilibrium dialysis method are used to determine drug availability. Equilibrium dialysis studies using a 96-well microplate format or using conventional 2-chambered Teflon dialysis cells can be used to determine plasma or serum binding, and LC/MS/MS analysis is used for test compound quantification. The Teflon dialysis cell system is commonly used to determine the time to reach equilibrium, the fraction of a compound bound and unbound to plasma proteins and the effect of concentration on the extent of binding. Test compound quantification is performed by HPLC or LC/MS/MS analysis.
To perform equilibrium dialysis the following procedures can be used. To 0.990 mL of thawed plasma (37° C.), a 10 μL aliquot of the stock solutions is added for test compound concentrations of 35 μM. An appropriate volume of buffer (Dulbecco's phosphate buffered saline, pH 7.4) is spiked with each test compound at a concentration of 35 μM. Duplicate aliquots (130 μL) of each spiked plasma and buffer solution are collected prior to dialysis into labeled 1.5 mL polypropylene tubes and stored frozen at −40° C. […] Equilibrium dialysis is performed in a 96-well Teflon dialysis unit. Each well of the unit consists of two chambers separated by a vertically aligned dialysis membrane (regenerated cellulose) with a molecular weight cut-off of 12-14 KDa. The equilibrium dialysis membranes are first pre-soaked in deionized water for 30 min, then soaked in 20% ethanol for 20 min, followed by rinsing twice with deionized water. The equilibrium dialysis apparatus is assembled according to the manufacturer's directions. One chamber of each well is filled with 150 μL of blank buffer (to prevent membrane dehydration). Aliquots (150 μL) of spiked plasma or spiked buffer are added to the opposing chamber in each well. The top of the plate is sealed with an adhesive sealing film to prevent evaporation and to maintain constant pH during incubation. All dialysis experiments with the test compounds and standards are assessed using duplicate samples. The dialysis apparatus is incubated at 37° C. in an orbital shaker/incubator (Lab-Line Enviro) samples are collected following 24 hours of incubation. Samples containing the test compounds are stored frozen at −70° C. until analysis. Samples (100 μL) containing the radiolabels are added and mixed by vortex. The disintegrations per minute (dpm) in each vial are measured with a liquid scintillation counter. The fraction of each test compound and standard unbound (fu) to human serum proteins is calculated according to the following equation:
[formula] wherein Cbuffer and Cplasma represent the concentration of the compound measured in the buffer and plasma chambers, respectively, following dialysis. The fraction bound (fb) to the plasma proteins is determined as: 1−fu.

CC(N)C1CCN(S(=O)(=O)c2cccc3cnccc23)CC1.Cl.Cl (racemic) [E-23a, (R,S)-N-(5″-isoquinolinesulfonyl)-4-[ethan-1′-amino]piperidine dihydrochloride]
percentage of inhibition of ROCKII (ROCKII; FIG. 5, compound at 10 μM, ATP 100 μM, duplicate): 83% | Percent Rock inhibition at 10 micromolar (ROCKII; Table 3, compound at 10 micromolar): 97% | percentage of inhibition of MSK1 (MSK1): 43% | percentage of inhibition of PRK2 (PRK2): 52% | Percent Net Neurite Outgrowth at 35 micromolar (NG108 cells): 39.0% | availability in plasma (in words) (human plasma proteins; equilibrium dialysis): relatively available in the unbound form | Bound (%) (human plasma proteins; [1]): 7.26% | Unbound (%) (human plasma proteins; [1]): 92.7%
